# Earlier results in patent publication US20160289773A1 (priority 2013, published 2016).
# Where “and” joins values, the source holds several entries; their conditions need not be identical. Identical values can stand only once.
# Tests used:
# Haemonchus contortus [1] = details: Zaire isolate
# Haemonchus contortus [2] = details: in vivo
compound,measurement,setting,value
"c1ccc([C@H]2CN3CCSC3=N2)cc1 [Levamisole, levamisole]",levamisole susceptibility status of isolate,Haemonchus contortus [1],susceptible
same,Levamisole efficacy,Haemonchus contortus [2],100% and > 99%
